# Test results published in US20110028566A1, “COMPOSITIONS AND PRODUCTS CONTAINING CYCLOALIPHATIC DIOL ANTIMICROBIAL AGENTS AND METHODS OF USING THE COMPOSITIONS AND PRODUCTS” (EASTMAN CHEMICAL COMPANY, priority 2009, published 2011).
# Experiments:
# [1] = tested on: Staphylococcus aureus; experiment: Microbial challenge testing in BPW; format: cell-based; conditions: for Grade code, S. aureus, 3 Day / Grade code, S. aureus, 14 Day / Grade code, S. aureus, 30 Day: BPW, w/v % in label, average of replicates
# Procedure: (§1) The microorganisms used in challenge tests are given in Table 3, designated as either ATCC (American Type Culture Collection) or wild type. These wild type organisms were problematic organisms previously isolated from chemical products. In the description for each organism, the bacteria are indicated as either GN (Gram negative) or GP (Gram positive).
# (§2) All of the microorganisms were grown in Tryptose Soy Broth (TSB), DIFCO™ available from Becton, Dickinson and Company, containing 1% dextrose. Aspergillus niger and Candida albicans were incubated at 22° C.±2° C. for at least 96 hours. All bacteria were incubated at 35° C.±2° C. in a humidified incubator for at least 96 hours.
# (§3) The following procedure was followed to determine the amount of each challenge material (inoculum broth) required to produce a 10^8 cfu/mL challenge, which is equivalent to a final test-sample microbial concentration of 10^5 to 10^6 cfu (colony-forming units)/mL.
# (§4) Using a sterile serological pipette, 1 mL of the growth from each TSB culture was transferred into tubes containing 9 mL phosphate buffer (pH 7.2) and mixed thoroughly. This process was repeated to make serial 1:10 dilutions. Then 0.1 mL of each sample and dilution was inoculated onto agar plates to produce the equivalent of a further 1:10 dilution. C. albicans and A. niger were inoculated onto SDA and bacteria were inoculated onto Plate Count Agar (PCA), DIFCO™ available from Becton, Dickinson and Company. The 0.1 mL aliquots were evenly distributed on the plates using the spread-plate technique. The spread-plate technique is performed by spreading the aliquot over the entire plate surface using a sterile spreading rod while rotating the plate with a rotary auto-plater. After the inoculum was absorbed completely, each plate was inverted and incubated (fungi at 22° C.±2° C. and bacteria at 35° C.±2° C.).
# (§5) After incubation for at least 48 hours, colonies that had developed on the agar plates were counted and recorded with the corresponding dilution. If counting had to be delayed temporarily, plates were refrigerated, preferably no more than 24 hours, until they could be counted. The number of cfu/mL was determined by multiplying the count by the dilution factor for that particular plate.
# (§6) Turbidity in Nepholemetric Turbidity Units (NTU) was measured for each serial dilution using the HF-Micro 100 Model Turbidimeter. For each microorganism, the plate counts were compared to the turbidity readings.
# (§7) Control substrates (“broth alone”) were prepared for each microorganism separately in triplicate by adding 13.5 mL of BPW (pH 7.0) containing 1% (w/v) dextrose to each 20-mL glass tube; then adding 1.5 mL challenge material to produce a final concentration at time zero of 10^5 to 10^6 cfu/mL and a total volume of 15 mL.
# (§8) Test sample substrates were prepared containing each test material (1,4-CHDM, etc) or combination of test materials at the concentrations shown in Tables 5 and 6. Sample substrates were prepared in triplicate, except those substrates containing PE or CG which were prepared in duplicate. Substrates were prepared by adding BPW containing 1% (w/v) dextrose to each 20-mL glass tube, then adding the test material in the amount appropriate to achieve the desired weight/volume percent (g/100 mL) and to obtain a total volume of BPW with dextrose and test material of 13.5 mL. Then 1.5 mL challenge material was added to produce a final concentration at time zero of 10^5 to 10^6 cfu/mL of the respective organism and a total test sample substrate volume of 15 mL.
# (§9) After mixing, all challenged substrates were incubated at 35° C.±2° C. for 14 days and then at ambient room temperature.
# [2] = tested on: Streptococcus mutans; experiment: Microbial challenge testing in BPW; format: cell-based; conditions: for Grade code, S. mutans, 3 Day / Grade code, S. mutans, 13 Day / Grade code, S. mutans, 30 Days: BPW, w/v % in label, average of replicates
# Procedure: as §1, §2, §3, §4, §5, §6, §7, §8, §9
# [3] = 3 days incubation, listed as 0.5% AB
# [4] = 3 days incubation, listed as 1.25% AB
# [5] = 3 days incubation, listed as 2.5% AB
# [6] = 30 days incubation, listed as 0.5% AB
# [7] = 30 days incubation, listed as 1.25% AB
# [8] = 30 days incubation, listed as 2.5% AB
smiles,measurement,setting,value
"OCC1CCC(CO)CC1 (stereo not drawn) [1,4-CHDM, 1,4-cyclohexanedimethanol]",Grade code S. aureus,"[1]; 0.5%, 3 days incubation","4 (1001 to 10,000 colonies (thus 10,000 cfu/mL to 100,000 cfu/mL))"
same,Grade code S. aureus,"[1]; 0.5%, 14 days incubation","4 (1001 to 10,000 colonies (thus 10,000 cfu/mL to 100,000 cfu/mL))"
same,Grade code S. aureus,"[1]; 0.5%, 30 days incubation","4 (1001 to 10,000 colonies (thus 10,000 cfu/mL to 100,000 cfu/mL))"
same,Grade code S. aureus,"[1]; 1.25%, 3 days incubation","3 (101 to 1000 colonies (thus 1000 to 10,000 cfu/mL))"
same,Grade code S. aureus,"[1]; 1.25%, 14 days incubation",2.7
same,Grade code S. aureus,"[1]; 1.25%, 30 days incubation","4 (1001 to 10,000 colonies (thus 10,000 cfu/mL to 100,000 cfu/mL))"
same,Grade code S. aureus,"[1]; 2.5%, 3 days incubation",1.7
same,Grade code S. aureus,"[1]; 2.5%, 14 days incubation",1 (1 to 51 colonies counted (thus 10 to 510 cfu/mL))
same,Grade code S. aureus,"[1]; 2.5%, 30 days incubation",0 (No growth detected or <1 colony (thus <10 cfu/mL))
same,"Grade code, S. aureus, 3 Day",[1]; [3],"4 (1001 to 10,000 colonies (thus 10,000 cfu/mL to 100,000 cfu/mL))"
same,"Grade code, S. aureus, 3 Day",[1]; [4],"3 (101 to 1000 colonies (thus 1000 to 10,000 cfu/mL))"
same,"Grade code, S. aureus, 3 Day",[1]; [5],1.7
same,"Grade code, S. aureus, 14 Day","[1]; 14 days incubation, listed as 0.5% AB","4 (1001 to 10,000 colonies (thus 10,000 cfu/mL to 100,000 cfu/mL))"
same,"Grade code, S. aureus, 14 Day","[1]; 14 days incubation, listed as 1.25% AB",2.7
same,"Grade code, S. aureus, 14 Day","[1]; 14 days incubation, listed as 2.5% AB",1 (1 to 51 colonies counted (thus 10 to 510 cfu/mL))
same,"Grade code, S. aureus, 30 Day",[1]; [6],"4 (1001 to 10,000 colonies (thus 10,000 cfu/mL to 100,000 cfu/mL))"
same,"Grade code, S. aureus, 30 Day",[1]; [7],"4 (1001 to 10,000 colonies (thus 10,000 cfu/mL to 100,000 cfu/mL))"
same,"Grade code, S. aureus, 30 Day",[1]; [8],0 (No growth detected or <1 colony (thus <10 cfu/mL))
same,Grade code S. mutans,"[2]; 0.5%, 3 days incubation","4 (1001 to 10,000 colonies (thus 10,000 cfu/mL to 100,000 cfu/mL))"
same,Grade code S. mutans,"[2]; 0.5%, 13 days incubation","4 (1001 to 10,000 colonies (thus 10,000 cfu/mL to 100,000 cfu/mL))"
same,Grade code S. mutans,"[2]; 0.5%, 30 days incubation","4 (1001 to 10,000 colonies (thus 10,000 cfu/mL to 100,000 cfu/mL))"
same,Grade code S. mutans,"[2]; 1.25%, 3 days incubation","4 (1001 to 10,000 colonies (thus 10,000 cfu/mL to 100,000 cfu/mL))"
same,Grade code S. mutans,"[2]; 1.25%, 13 days incubation",2 (52 to 100 colonies counted (thus 520 to 1000 cfu/mL))
same,Grade code S. mutans,"[2]; 1.25%, 30 days incubation",2 (52 to 100 colonies counted (thus 520 to 1000 cfu/mL))
same,Grade code S. mutans,"[2]; 2.5%, 3 days incubation",2 (52 to 100 colonies counted (thus 520 to 1000 cfu/mL))
same,Grade code S. mutans,"[2]; 2.5%, 13 days incubation",0 (No growth detected or <1 colony (thus <10 cfu/mL))
same,Grade code S. mutans,"[2]; 2.5%, 30 days incubation",0 (No growth detected or <1 colony (thus <10 cfu/mL))
same,"Grade code, S. mutans, 3 Day",[2]; [3],"4 (1001 to 10,000 colonies (thus 10,000 cfu/mL to 100,000 cfu/mL))"
same,"Grade code, S. mutans, 3 Day",[2]; [4],"4 (1001 to 10,000 colonies (thus 10,000 cfu/mL to 100,000 cfu/mL))"
same,"Grade code, S. mutans, 3 Day",[2]; [5],2 (52 to 100 colonies counted (thus 520 to 1000 cfu/mL))
same,"Grade code, S. mutans, 13 Day","[2]; 13 days incubation, listed as 0.5% AB","4 (1001 to 10,000 colonies (thus 10,000 cfu/mL to 100,000 cfu/mL))"
same,"Grade code, S. mutans, 13 Day","[2]; 13 days incubation, listed as 1.25% AB",2 (52 to 100 colonies counted (thus 520 to 1000 cfu/mL))
same,"Grade code, S. mutans, 13 Day","[2]; 13 days incubation, listed as 2.5% AB",0 (No growth detected or <1 colony (thus <10 cfu/mL))
same,"Grade code, S. mutans, 30 Days",[2]; [6],"4 (1001 to 10,000 colonies (thus 10,000 cfu/mL to 100,000 cfu/mL))"
same,"Grade code, S. mutans, 30 Days",[2]; [7],2 (52 to 100 colonies counted (thus 520 to 1000 cfu/mL))
same,"Grade code, S. mutans, 30 Days",[2]; [8],0 (No growth detected or <1 colony (thus <10 cfu/mL))
